Assay results as given in the supplement of paper PMC10307832.

Columns and labels:
Assay in all cases: relative viability (nuclei count vs DMSO), 5 days (fraction); higher = more cells survive
[1] = compound: Cn1cc(-c2cnn3c(N)c(Br)c([C@@H]4CCCNC4)nc23)cn1 + CC(=O)Nc1cccc(-n2c(=O)n(C3CC3)c(=O)c3c(Nc4ccc(I)cc4F)n(C)c(=O)c(C)c32)c1 [Trametinib] (partner 0.02 µM)
Procedure, shortened: (§1)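 Lung cancer cell lines in 1536-well plates were dosed by pin tool the day after seeding, either with one drug alone or with a fixed anchor-drug dose plus five library-drug doses (not always all listed) in √10 steps. After 5 days, cells were fixed and their nuclei stained in one step (final 0.05% Triton X-100, 1% formaldehyde, 1 ug/ml Hoechst), then counted on 4× images. Relative viability is the nuclei count in treated wells divided by that in vehicle wells. Values are medians of duplicate plates.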

[2] = compound: Cn1cc(-c2cnn3c(N)c(Br)c([C@@H]4CCCNC4)nc23)cn1 + CC1(C)CCC(c2ccc(Cl)cc2)=C(CN2CCN(c3ccc(C(=O)NS(=O)(=O)c4ccc(N[C@H](CCN5CCOCC5)CSc5ccccc5)c(S(=O)(=O)C(F)(F)F)c4)cc3)CC2)C1 [Navitoclax] (partner 0.5 µM)
Procedure, shortened: as §1

[3] = compound: Cn1cc(-c2cnn3c(N)c(Br)c([C@@H]4CCCNC4)nc23)cn1 + Nc1nc2[nH]cc(CCc3ccc(C(=O)N[C@@H](CCC(=O)O)C(=O)O)cc3)c2c(=O)[nH]1 [Pemetrexed] (partner 0.2 µM)
Procedure, shortened: as §1

[4] = compound: Cn1cc(-c2cnn3c(N)c(Br)c([C@@H]4CCCNC4)nc23)cn1 + N=C(N)NC(=N)NCCc1ccccc1 [Phenformin] (partner 250 µM)
Procedure, shortened: as §1

| Cell Line | relative viability ([1]; first compound 0.05 µM) | relative viability ([1]; first compound 0.1581 µM) | relative viability ([1]; first compound 0.5 µM) | relative viability ([1]; first compound 1.581 µM) | relative viability ([1]; first compound 5 µM) | relative viability ([2]; first compound 0.05 µM) | relative viability ([2]; first compound 0.1581 µM) | relative viability ([2]; first compound 0.5 µM) | relative viability ([2]; first compound 5 µM) | relative viability ([3]; first compound 0.05 µM) | relative viability ([3]; first compound 0.1581 µM) | relative viability ([3]; first compound 0.5 µM) | relative viability ([3]; first compound 1.581 µM) | relative viability ([3]; first compound 5 µM) | relative viability ([4]; first compound 0.05 µM) | relative viability ([4]; first compound 0.1581 µM) | relative viability ([4]; first compound 0.5 µM) | relative viability ([4]; first compound 1.581 µM) | relative viability ([4]; first compound 5 µM) | relative viability ([2]; first compound 1.581 µM) |
| --- | --- | --- | --- | --- | --- | --- | --- | --- | --- | --- | --- | --- | --- | --- | --- | --- | --- | --- | --- | --- |
| NCI-H441 | 0.431 | 0.491 | 0.426 | 0.337 | 0.429 | 0.534 | 0.857 | 0.671 | 0.696 | 0.261 | 0.283 | 0.254 | 0.277 | 0.25 | 0.785 | 1.15 | 0.915 | 0.841 | 0.727 | – |
| NCI-H1793 | 0.451 | 0.36 | 0.367 | 0.481 | 0.458 | 0.43 | 0.517 | 0.386 | 0.292 | 1.02 | 0.838 | 0.79 | 0.766 | 0.49 | 0.322 | 0.465 | 0.435 | 0.328 | 0.252 | 0.383 |
| NCI-H23 | 0.364 | 0.401 | 0.304 | 0.355 | 0.178 | 1.01 | 1.04 | 0.72 | 0.342 | 0.582 | 0.539 | 0.504 | 0.275 | 0.19 | 0.834 | 0.713 | 0.835 | 0.747 | 0.187 | 0.602 |
| HARA | 0.762 | 0.474 | 0.482 | 0.532 | 0.344 | 1.11 | 1.21 | 1.25 | 0.725 | 0.228 | 0.213 | 0.223 | 0.141 | 0.141 | 0.468 | 0.518 | 0.448 | 0.36 | 0.136 | 1.05 |
| NCI-H1792 | 0.409 | 0.6 | 0.536 | – | 0.513 | 0.35 | 0.674 | 0.322 | 0.677 | 0.847 | 1.19 | 0.795 | – | 0.55 | 0.189 | 0.345 | 0.261 | 0.203 | 0.236 | 0.366 |
| NCI-H1703 | – | – | – | – | – | 1.08 | 0.441 | 0.309 | 0.122 | – | – | – | – | – | – | – | – | – | – | 0.147 |
| NCI-H2342 | 0.801 | 0.9 | 0.682 | 0.835 | 0.777 | – | – | – | – | 0.867 | 0.846 | 0.762 | 0.788 | 0.778 | 0.578 | 0.6 | 0.682 | 0.533 | 0.593 | – |
| CAL-12T | 0.288 | 0.346 | 0.315 | 0.33 | 0.278 | 1.36 | 1.24 | 1.12 | 0.159 | 1.45 | 0.778 | 0.892 | 0.623 | 0.393 | 0.478 | 0.585 | 0.537 | 0.377 | 0.155 | 0.755 |
| NCI-H727 | 0.394 | 0.412 | 0.366 | 0.404 | 0.348 | 0.4 | 0.43 | 0.333 | 0.212 | – | – | – | – | – | 0.505 | 0.501 | 0.663 | 0.51 | 0.238 | 0.463 |
| NCI-H2085 | 0.532 | 0.664 | 0.548 | 0.484 | 0.287 | 1.3 | 1.13 | 1.18 | 0.943 | 0.864 | 0.925 | 0.921 | 0.789 | 0.7 | 0.692 | 0.746 | 0.737 | 0.626 | 0.516 | 1.09 |
| NCI-H1395 | 1.22 | 0.544 | 0.883 | 0.569 | 0.444 | 1.18 | 0.698 | 0.953 | 0.423 | 0.695 | 0.445 | 0.535 | 0.578 | 0.446 | 0.44 | 0.41 | 0.435 | 0.359 | 0.358 | 0.68 |
| NCI-H1648 | 0.443 | 0.478 | 0.421 | 0.435 | 0.515 | – | – | – | – | 0.686 | 0.673 | 0.68 | 0.715 | 0.668 | – | – | – | – | – | – |
| NCI-H460 | 0.152 | 0.209 | 0.0974 | 0.0913 | 0.0615 | 1.04 | 1.32 | 0.972 | 0.448 | 0.0569 | 0.0582 | 0.0504 | 0.0664 | 0.0552 | 0.493 | 0.512 | 0.456 | 0.176 | 0.0895 | 0.749 |
| A549 | – | – | – | – | – | 1.25 | 1.3 | 1.14 | 0.917 | – | – | – | – | – | 0.158 | 0.907 | 0.215 | 0.149 | 0.115 | 0.916 |
| IA-LM | – | – | – | – | – | 0.858 | 0.974 | 0.609 | 0.252 | – | – | – | – | – | – | – | – | – | – | 0.412 |
| EKVX | 0.445 | 0.317 | 0.413 | 0.377 | 0.409 | 0.828 | 1.13 | 0.911 | 0.782 | 0.497 | 0.293 | 0.307 | 0.241 | 0.206 | 0.223 | 0.254 | 0.257 | 0.245 | 0.194 | 0.918 |
| ChaGo-K-1 | 0.926 | 0.925 | 0.874 | 0.806 | 0.972 | 0.966 | 0.967 | 0.981 | 0.607 | 0.259 | 0.248 | 0.273 | 0.28 | 0.247 | 0.467 | 0.523 | 0.509 | 0.46 | 0.503 | 0.737 |
| NCI-H1755 | 0.783 | 0.802 | 0.744 | 0.782 | 0.765 | 1.12 | 1.03 | 0.961 | 0.969 | 0.398 | 0.397 | 0.401 | 0.373 | 0.272 | 0.629 | 0.664 | 0.603 | 0.652 | 0.597 | 0.994 |
| NCI-H2228 | 0.717 | 0.563 | 0.5 | 0.282 | 0.239 | 1.09 | 1.12 | 1.13 | 0.481 | 0.315 | 0.33 | 0.311 | 0.22 | 0.155 | 0.274 | 0.256 | 0.373 | 0.184 | 0.194 | 0.64 |
